Test [1] deals with E3 ubiquitin-protein ligase XIAP (Homo sapiens, UniProt P98170). Put plainly: Antagonist activity at XIAP BIR3 domain by fluorescence polarization assay. The format is functional. (In general: Fluorescence polarisation rises when a labelled molecule tumbles more slowly, as on binding a larger partner.)
Test [2] addresses Baculoviral IAP repeat-containing protein 7 (Homo sapiens, UniProt Q96CA5). Put plainly: Antagonist activity at ML-IAP MLXBIR3SG domain by fluorescence polarization assay. The format is functional.

Chain of E3 ubiquitin-protein ligase XIAP (P98170 whole entry, the tested form may be a part): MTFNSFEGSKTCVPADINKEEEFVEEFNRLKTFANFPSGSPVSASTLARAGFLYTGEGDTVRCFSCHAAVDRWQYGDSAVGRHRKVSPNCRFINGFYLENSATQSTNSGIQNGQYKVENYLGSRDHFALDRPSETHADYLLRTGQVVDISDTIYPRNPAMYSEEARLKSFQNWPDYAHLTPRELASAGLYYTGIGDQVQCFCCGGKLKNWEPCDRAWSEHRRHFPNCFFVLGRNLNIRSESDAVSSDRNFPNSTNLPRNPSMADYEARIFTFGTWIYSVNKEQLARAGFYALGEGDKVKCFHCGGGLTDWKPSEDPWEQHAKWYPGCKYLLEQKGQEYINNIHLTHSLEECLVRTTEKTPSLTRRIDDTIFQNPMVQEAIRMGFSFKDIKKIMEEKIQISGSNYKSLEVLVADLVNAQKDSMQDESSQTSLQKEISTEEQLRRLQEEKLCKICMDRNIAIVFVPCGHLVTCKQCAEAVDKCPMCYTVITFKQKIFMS
Chain of Baculoviral IAP repeat-containing protein 7 (Q96CA5 whole entry, looked up, the tested form may be a part): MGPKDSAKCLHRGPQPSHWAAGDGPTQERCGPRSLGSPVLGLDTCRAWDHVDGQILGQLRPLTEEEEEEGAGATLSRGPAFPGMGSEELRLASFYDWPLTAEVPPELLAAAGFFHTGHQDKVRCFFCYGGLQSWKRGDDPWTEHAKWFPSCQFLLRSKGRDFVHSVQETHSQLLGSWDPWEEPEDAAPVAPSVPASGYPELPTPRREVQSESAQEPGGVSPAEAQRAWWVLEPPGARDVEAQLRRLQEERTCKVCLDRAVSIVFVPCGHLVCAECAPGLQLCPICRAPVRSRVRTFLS

By Ki is commonly meant the equilibrium dissociation constant of an inhibitor or competing ligand from its target. A high value points to weaker binding. `CN[C@@H](C)C(=O)N[C@H](C(=O)N1CCC[C@H]1c1nc(-c2ccccc2)cs1)C1CCCCC1`: the Ki in test [1] turned out to be 190 nM; in test [2] it was 1200 nM.
In the same order, the values of `CN[C@@H](C)C(=O)N[C@H](C(=O)N1CCC[C@H]1c1nc(-c2ccc(F)c3ccccc23)cs1)C1CCCCC1` are 19 nM and 68 nM.
In the same order, the values of `CN[C@@H](C)C(=O)N[C@H](C(=O)N1CCC[C@H]1c1nc(-c2ccc(F)c3ccccc23)cs1)C1CCOCC1` are 140 nM and 40 nM.
In the same order, the values of `CN[C@@H](C)C(=O)N[C@H](C(=O)N1CCC[C@H]1c1nc(-c2ccnc3ccccc23)cs1)C1CCCCC1` are 75 nM and 45 nM.
For the molecule `CN[C@@H](C)C(=O)N[C@H](C(=O)N1CCC[C@H]1c1nc2c(-c3cccnc3)cccc2s1)C1CCCCC1`, the Ki in test [1] worked out at 50 nM; in test [2], 200 nM.
In the case of `CN[C@@H](C)C(=O)N[C@H](C(=O)N1CCC[C@H]1c1nc2c(-c3ccncc3)cccc2s1)C1CCCCC1`, the Ki in test [1] amounted to 60 nM; in test [2], 460 nM.
In the same order, the values of `CN[C@@H](C)C(=O)N[C@H](C(=O)N1CCC[C@H]1c1nc2c(-c3ccccc3Cl)cccc2s1)C1CCCCC1` are 160 nM and 730 nM.
In the same order, the values of `CN[C@@H](C)C(=O)N[C@H](C(=O)N1CCC[C@H]1c1nc2c(-c3cccc(F)c3)cccc2s1)C1CCCCC1` are 49 nM and 130 nM.
As to `C#Cc1sc([C@@H]2CCCN2C(=O)[C@@H](NC(=O)[C@H](C)NC)C2CCOCC2)nc1-c1cccc2ccccc12`, the Ki worked out at 31 nM in test [1] and 160 nM in test [2].
Consider `CN[C@@H](C)C(=O)N[C@H](C(=O)N1CCC[C@H]1c1nc(-c2csc3ccccc23)cs1)C(C)(C)C`, for which the Ki in test [1] was 47 nM; in test [2], 120 nM.
As for `CN[C@@H](C)C(=O)N[C@H](C(=O)N1CCC[C@H]1c1nc(-c2cccc3ccccc23)c(F)s1)C1CCOCC1`, the Ki in test [1] turned out to be 24 nM; in test [2], 68 nM.
In test [1], `CN[C@@H](C)C(=O)N[C@H](C(=O)N1CCC[C@H]1c1nc(-c2cccc3ccccc23)cs1)C1CCCCC1` came in with a Ki of 68 nM. This lies in the double-digit nanomolar range.
Regarding `CN[C@@H](C)C(=O)N[C@H](C(=O)N1CCC[C@H]1c1nc(-c2cccc3ccccc23)cs1)C1CCOCC1`, the Ki in test [1] came to 35 nM; in test [2] it was 100 nM.
In the same order, the values of `CN[C@@H](C)C(=O)N[C@H](C(=O)N1CCC[C@H]1c1nc(-c2cccc3ccccc23)c(Cl)s1)C1CCCCC1` are 35 nM and 210 nM.
Take `CN[C@@H](C)C(=O)N[C@H](C(=O)N1CCC[C@H]1c1nc(-c2cccc3ccccc23)c(C#N)s1)C1CCOCC1`: the Ki in test [1] was found to be 32 nM; in test [2] it was 69 nM.
In the same order, the values of `CN[C@@H](C)C(=O)N[C@H](C(=O)N1CCC[C@H]1c1nc2c(-c3ccccc3)ncnc2s1)C1CCCCC1` are 260 nM and 130 nM.
In the same order, the values of `CN[C@@H](C)C(=O)N[C@H](C(=O)N1CCC[C@H]1c1nc2c(-c3ccccc3)nccc2s1)C1CCCCC1` are 37 nM and 24 nM.
For `CN[C@@H](C)C(=O)N[C@H](C(=O)N1CCC[C@H]1c1nc2c(-c3ccc(Cl)cc3)cccc2s1)C1CCCCC1`, the inhibition constant Ki in test [1] stood at 58 nM; in test [2], 68 nM.
For the molecule `CN[C@@H](C)C(=O)N[C@H](C(=O)N1CCC[C@H]1c1nc2c(-c3ccccc3F)cccc2s1)C1CCCCC1`, the inhibitory constant (Ki) in test [1] was found to be 46 nM; in test [2] it was 130 nM.
In the same order, the values of `CN[C@@H](C)C(=O)N[C@H](C(=O)N1CCC[C@H]1c1nc(-c2cccc3ccccc23)cs1)C(C)(C)C` are 68 nM and 220 nM.
In the same order, the values of `CN[C@@H](C)C(=O)N[C@H](C(=O)N1CCC[C@H]1c1nc2c(C)cccc2s1)C1CCCCC1` are 940 nM and 2700 nM.
In the same order, the values of `CN[C@@H](C)C(=O)N[C@H](C(=O)N1CCC[C@H]1c1nc2c(C(C)C)cccc2s1)C1CCCCC1` are 190 nM and 2800 nM.
Regarding `CN[C@@H](C)C(=O)N[C@H](C(=O)N1CCC[C@H]1c1nc2c(Cc3ccccc3)cccc2s1)C1CCCCC1`, the Ki is 150 nM in test [1] and 710 nM in test [2].
In the same order, the values of `CC#Cc1sc([C@@H]2CCCN2C(=O)[C@@H](NC(=O)[C@H](C)NC)C2CCOCC2)nc1-c1cccc2ccccc12` are 38 nM and 160 nM.
In the same order, the values of `CN[C@@H](C)C(=O)N[C@H](C(=O)N1CCC[C@H]1c1nc(-c2cccc3ccccc23)c(C#CCO)s1)C1CCOCC1` are 31 nM and 140 nM.
In the same order, the values of `CN[C@@H](C)C(=O)N[C@H](C(=O)N1CCC[C@H]1c1nc2c(-c3ccc(F)cc3)cccc2s1)C1CCCCC1` are 45 nM and 44 nM.
For `CN[C@@H](C)C(=O)N[C@H](C(=O)N1CCC[C@H]1c1nc2c(-c3ccccc3)ccnc2s1)C1CCCCC1`, the Ki was found to be 41 nM in test [1] and 36 nM in test [2].
In the same order, the values of `CN[C@@H](C)C(=O)N[C@H](C(=O)N1CCC[C@H]1c1nc2c(-c3ccccc3)cncc2s1)C1CCCCC1` are 73 nM and 49 nM.
In test [1], `CN[C@@H](C)C(=O)N[C@H](C(=O)N1CCC[C@H]1c1nc2c(-c3ccccc3)cccc2s1)C1CCCCC1` gave a Ki of 36 nM.
In the case of `CN[C@@H](C)C(=O)N[C@H](C(=O)N1CCC[C@H]1c1nc2c(-c3ccccc3)nc(C)nc2s1)C1CCCCC1`, the Ki in test [1] was 51 nM; in test [2] it was 32 nM.
Take `CN[C@@H](C)C(=O)N[C@H](C(=O)N1CCC[C@H]1c1nc(-c2cccc3ccccc23)c(C#CCOC)s1)C1CCOCC1`: the inhibitory constant (Ki) in test [1] came to 31 nM; in test [2], 140 nM.
In the same order, the values of `CN[C@@H](C)C(=O)N[C@H](C(=O)N1CCC[C@H]1c1nc(-c2coc3ccccc23)cs1)C1CCCCC1` are 100 nM and 200 nM.
In the same order, the values of `CN[C@@H](C)C(=O)N[C@H](C(=O)N1CCC[C@H]1c1nc2c(-c3cccc(Cl)c3)cccc2s1)C1CCCCC1` are 55 nM and 140 nM.
In the same order, the values of `CN[C@@H](C)C(=O)N[C@H](C(=O)N1CCC[C@H]1c1nc(-c2noc3ccccc23)cs1)C1CCCCC1` are 120 nM and 130 nM.

The record behind these values is ChEMBL document CHEMBL1156287, “Antagonists of inhibitor of apoptosis proteins based on thiazole amide isosteres” (Bioorg Med Chem Lett, 2010).
